According to PubChem BioAssay (NCI):
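Where inhibition never reached the appropriate level, the endpoint shown equals the highest concentration tested. Otherwise, values were interpolated linearly from a five-concentration, 48-hour dose response in 96-well plates. At the TGI there is no net growth.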

Key:
Experiment in all cases: NCI tumour cell line growth inhibition, 48 h
SK-MEL-5 melanoma = system: SK-MEL-5 melanoma
SR leukemia = system: SR leukemia
U251 CNS = system: U251 CNS
SF-295 CNS = system: SF-295 CNS
DU-145 prostate = system: DU-145 prostate
RXF 393 renal = system: RXF 393 renal
HCT-116 colon = system: HCT-116 colon
PC-3 prostate = system: PC-3 prostate
RPMI-8226 leukemia = system: RPMI-8226 leukemia
786-0 renal = system: 786-0 renal
K-562 leukemia = system: K-562 leukemia
SF-539 CNS = system: SF-539 CNS
HCT-15 colon = system: HCT-15 colon
NCI-H460 lung = system: NCI-H460 lung
SK-MEL-28 melanoma = system: SK-MEL-28 melanoma
SK-OV-3 ovarian = system: SK-OV-3 ovarian
OVCAR-3 ovarian = system: OVCAR-3 ovarian
MOLT-4 leukemia = system: MOLT-4 leukemia
NCI-H522 lung = system: NCI-H522 lung
MDA-N = system: MDA-N

Row | Compound | TGI (SK-MEL-5 melanoma) [µM] | TGI (SR leukemia) [µM] | TGI (U251 CNS) [µM] | TGI (SF-295 CNS) [µM] | TGI (DU-145 prostate) [µM] | TGI (RXF 393 renal) [µM] | TGI (HCT-116 colon) [µM] | TGI (PC-3 prostate) [µM] | TGI (RPMI-8226 leukemia) [µM] | TGI (786-0 renal) [µM] | TGI (K-562 leukemia) [µM] | TGI (SF-539 CNS) [µM] | TGI (HCT-15 colon) [µM] | TGI (NCI-H460 lung) [µM] | TGI (SK-MEL-28 melanoma) [µM] | TGI (SK-OV-3 ovarian) [µM] | TGI (OVCAR-3 ovarian) [µM] | TGI (MOLT-4 leukemia) [µM] | TGI (NCI-H522 lung) [µM] | TGI (MDA-N) [µM]
1 | O=C(NC1CCCCC1)c1cc2ccccc2cc1O | 47.9 | 87.2 | > 100 | > 100 | > 100 | 58.5 | 47.6 | 99 | 46.6 | 84.5 | 55.9 | 57.2 | 65.1 | 62.8 | > 100 | > 100 | – | – | – | –
2 | COC(=O)[C@H]1NC(=O)CCSSC1(C)C | > 100 | – | > 100 | > 100 | > 100 | > 100 | > 100 | > 100 | > 100 | > 100 | > 100 | > 100 | > 100 | – | > 100 | – | > 100 | > 100 | > 100 | –
3 | CSC1C(=O)Nc2ccc3ccccc3c21 (centres undefined) | 57.4 | – | 33.6 | > 100 | > 100 | – | 29.9 | 35 | 60.7 | 32.6 | – | 45.7 | 38.4 | > 100 | > 100 | > 100 | – | > 100 | 7.29 | > 100
4 | COc1cc2cc(C(=O)N3CC(CCl)c4c3cc(NC(=O)OCc3ccc([N+](=O)[O-])cc3)c3ccccc43)[nH]c2c(OC)c1OC (centres undefined) | > 100 | – | > 100 | > 56.2 | 18 | > 100 | > 79.8 | > 100 | > 100 | > 39.3 | – | > 100 | > 100 | > 39.1 | > 100 | > 100 | > 100 | > 100 | > 76.7 | > 100
5 | CC(C)CCCC(C)[C@H]1CC[C@H]2[C@@H]3CC[C@H]4C[C@@H](CCC=C(c5cc(Cl)c(O)c(C(=O)OC(C)C)c5)c5cc(Cl)c(O)c(C(=O)OC(C)C)c5)CC[C@]4(C)[C@H]3CC[C@]12C (some centres undefined) | > 50 | – | > 50 | > 50 | > 50 | > 50 | > 50 | > 50 | > 50 | > 50 | > 50 | > 50 | > 50 | – | > 50 | > 50 | > 50 | > 50 | – | > 50
6 | C(/Cc1ccc2c(c1)OCO2)=N\NC1=NCCN1 | > 100 | > 100 | > 100 | > 100 | > 100 | > 100 | > 100 | > 100 | > 100 | > 100 | > 100 | > 100 | > 100 | > 100 | > 100 | > 100 | > 100 | > 100 | > 100 | –
7 | COc1cc(C2c3cc4c(cc3OC(Nc3ccccc3)C2C)OCO4)cc(OC)c1O (centres undefined) | 10.7 | – | 14.2 | 15.6 | 19.6 | 19.7 | 16 | 13.4 | 9.86 | 21.7 | 7.49 | 8.9 | 17.5 | – | 28.4 | – | 24.6 | 11.2 | 9.16 | 3.01
